According to patent US20060149033A1, “IGF antagonist peptides” (GENENTECH, INC., priority 2001, published 2006):
Bridge positions count the residues as written; N and C are the ends. Peptide text beside a SMILES is read from it.

How the values were obtained:
[1] = test system: human insulin receptor (hIR); assay: Cell-based insulin KIRA assay (kinase receptor activation); settings: Chinese hamster ovary cells transfected with hIR; peptides incubated with 25 nm IGF-1 for 1 hr; 15 min stimulation
Experimental: Cell-Based Insulin KIRA Assay of IGF-1 Binding Peptide Activity
A kinase receptor activation assay (KIRA) (Sadick et al., J. Pharm. Biomed. Anal., 19, 883-891 (1999)) for measuring phosphorylation of human insulin receptor (hIR) was developed using Chinese hamster ovary cells transfected with the hIR. (TRY-1R 5.3) Cells were grown overnight in 96-well plates with medium (PS/20) at 37° C. Supernatants were decanted and stimulation media (PS/20 and 0.5% BSA) containing either peptide samples (peptides incubated with 25 nm IGF-1 for 1 hr), experimental controls (IGF Bp1 incubated with IGF-1 for 1 hr), and 25 nm rhIGF-1 standards were added. After fifteen minute stimulation at 37° C., stimulation solutions were removed and cells were lysed with a buffer containing 50 mM HEPES, 150 mM NaCl, 0.5% Triton-X-100™ octylphenyl ethylene oxide condensate, 1 mM AEBSF, aprotinin and 0.05 mM leupeptin, and 2 mM sodium orthovanadate. Lysates were frozen at −70° C. for ELISA. Immunosorbant plates were coated with 2 μg/ml insulin receptor Ab-2 (clone 83-7) in PBS at pH 7.0 overnight at 4° C. The plate was blocked and washed as above. Cell lysates containing transfected hIR were incubated on the capture ELISA plates for 2 hrs. After removing unbound receptor by washing, biotinylated anti-phosphotyrosine 4G10 (Upstate Biologicals Inc.) was added to detect activated receptor. After 2 hrs, the plates were developed with streptavidin conjugated to HRP and TMB substrate as above.

[2] = test system: human type 1 IGF-1 receptor; assay: Cell-based IGF-1 KIRA assay; settings: MCF-7 cells; peptides preincubated 30 min with 2 nm IGF-1; 15-minute stimulation
Experimental: Cell-Based IGF-1 KIRA Assay
A KIRA for measuring the activation of the human type 1 IGF-1 receptor was performed using human MCF-7 cells (as described above). Cells were grown overnight in 96-well plates with medium (50:50 F12/DMEM, Gibco). Supernatants were decanted, and stimulation media (50:50 F12/DMEM with 25 mM HEPES and 2.0% BSA) containing either controls (2 nM IGF-1 preincubated with IGF Bp1 or Bp3) or experimental samples (Peptides preincubated for 30 min. with 2 nm IGF-1) were added. After 15-minute stimulation the cells were lysed, and added to the polyclonal anti-IGF-R (3B7 Santa Cruz Biotech) coated overnight on immunosorbant plates. The detection ELISA was performed as above.

[3] = target: IGFBP-1; assay: Peptide inhibition of phage IGF-1 binding to IGFBP-1; set-up: species or system human; settings: synthetic peptide preincubated 45 minutes with IGF-1 displaying phage; plates coated with IGF binding protein; read-out: BP1 Comp
Experimental: (§1) Peptide Inhibition of Phage IGF-1 Binding to IGF Binding Proteins
(§2) For inhibition of IGFBP-1 and IGFBP3, E. coli cells (XL1-Blue, Stratagene) freshly transformed with the phage vector pIGF-g3 displaying human IGF-1 as described in Dubaquie and Lowman, supra, was grown overnight in 5 ml of 2YT medium (Sambrook et al., Molecular Cloning. A Laboratory Handbook (Cold Spring Harbor Laboratory Press, Cold Spring Harbor, N.Y., 1989)). The IGF-1 displaying phage was titered against IGF bp1 and bp3 for a 500-1000× dilution for preincubation with serial dilutions the synthesized peptides and binding protein standards for 45 minutes. Immunosorbant plates were coated with IGF binding proteins and blocked with 0.5% TWEEN®-20 detergent and PBS and washed as above. The samples were added to the plates for 20 minutes, washed and detected as above. The experimental IC50 values are in Table 5.

[4] = test system: IGF receptors on MCF-7 cells; assay: Displacement of 125I IGF-1 on MCF-7 cells; set-up: species or system human; settings: peptides preincubated with 2 nm 125I IGF-1 for 40 minutes at 37° C; added to cells for 30 minutes; read-out: MCF-7 binding
Experimental: Displacement of IGF-1 on MCF-7 Cells
MCF7 (ATCC-HTB, Bethesda, Md.), a breast carcinoma cell line that expresses IGF receptors as well as insulin receptors (Grupe et al., J. Biol. Chem., 270, 22085-22088 (1995)) was used to detect inhibition of ^125I IGF-1 to receptors on cells by synthesized peptides. Cell were passaged weekly in media containing a 50/50 mix of high-glucose DMEM/Ham's F12, with 10% fetal bovine serum and 10 mM HEPES pH 7.2. Cells were plated and grown overnight maintained at 37° C. and 5% CO2. For IGF-1 iodination, 50 μg of IGF-1 was diluted into 200 μL of PBS and added to a tube coated with 100 μg of IODOGEN® 1,3,4,6-tetrachloro-3α-6β-diphenylglycouril) (Pierce Chemical Co.), incubated with 1 mCi of ^125I-NaI (10 μL) at room temperature for 10-15 minutes. Synthesized peptides and binding protein controls were preincubated with 2 nm ^125I IGF-1 for 40 minutes at 37° C. The samples were added to cells for 30 minutes. The cells were washed with media and lysed with 1N NaOH.

[5] = target: IGFBP3; assay: Peptide inhibition of phage IGF-1 binding to IGFBP-3; set-up: species or system human; settings: synthetic peptide preincubated 45 minutes with IGF-1 displaying phage; plates coated with IGF binding protein; read-out: BP3 Comp
Experimental: as §1, §2

Row | Compound | IC50 [1] [µM] | IC50 [2] [µM] | IC50 [3] [µM] | IC50 [4] [µM] | IC50 [5] [µM]
1 | CSCC[C@H](NC(=O)[C@@H]1CSSC[C@H](NC(=O)[C@H](CCC(=O)O)NC(=O)[C@@H](N)Cc2ccccc2)C(=O)N[C@@H](CC(C)C)C(=O)N[C@@H]([C@@H](C)O)C(=O)N[C@@H](CO)C(=O)N[C@@H](C(C)C)C(=O)N[C@@H](CCC(=O)O)C(=O)N[C@@H](C)C(=O)N[C@@H](CC(C)C)C(=O)N[C@@H](CCCNC(=N)N)C(=O)NCC(=O)N1)C(=O)N[C@@H](Cc1ccc(O)cc1)C(=O)NCC(N)=O [Peptide F1-3, FECLTSVEALRGCMYG] (H-FECLTSVEALRGCMYG-NH2; disulfide 3-13; N-terminus and C-terminus assumed) | 66.1 | 102 | 11.7 | 45.7 | 12.8
2 | CSCC[C@H](NC(=O)[C@@H]1CSSC[C@H](NC(=O)[C@H](CC(=O)O)NC(=O)[C@@H](N)CCSC)C(=O)N[C@@H](CC(C)C)C(=O)N[C@@H](C)C(=O)N[C@@H](CO)C(=O)N[C@@H](C(C)C)C(=O)N[C@@H](CCC(=O)O)C(=O)N[C@@H](C)C(=O)N[C@@H](CC(C)C)C(=O)N[C@@H](CCCCN)C(=O)N[C@@H](Cc2c[nH]c3ccccc23)C(=O)N1)C(=O)N[C@@H](Cc1ccc(O)cc1)C(=O)NCC(=O)O [Peptide F1-2, MDCLASVEALKWCMYG] (H-MDCLASVEALKWCMYG-OH; disulfide 3-13 (inferred); N-terminus and C-terminus assumed) | 32.6 | 20 | 15.5 | 15.3 | 9.2
3 | CSCC[C@H](NC(=O)[C@@H]1CSSC[C@H](NC(=O)[C@H](CC(N)=O)NC(=O)[C@@H](N)CCCNC(=N)N)C(=O)N[C@@H](Cc2ccccc2)C(=O)N[C@@H](CCC(=O)O)C(=O)N[C@@H](CO)C(=O)N[C@@H](C(C)C)C(=O)N[C@@H](C)C(=O)N[C@@H](C)C(=O)N[C@@H](CC(C)C)C(=O)N[C@@H](CCCNC(=N)N)C(=O)N[C@@H](CCCNC(=N)N)C(=O)N1)C(=O)N[C@@H](Cc1ccc(O)cc1)C(=O)NCC(=O)O [Peptide F1-1, RNCFESVAALRRCMYG] (H-RNCFESVAALRRCMYG-OH; disulfide 3-13) | 5.48 | 84.9 | 1.4 | 5.12 | 2.93
